Test results published in patent publication US20180021270A1, “METHODS FOR THE TREATMENT OF CANCER USING COENZYME Q10 IN COMBINATION WITH IMMUNE CHECKPOINT MODULATORS” (Berg LLC, priority 2016, published 2018).

Assays:
human PBMCs (T cells) = test: Frequency of immune cell populations within PBMCs by flow cytometry; type: cell-based; settings: 0-800 μM, 24 hours, dose dependent; greater effect in PHA-stimulated than unstimulated cells
Protocol: PBMCs isolated from healthy human donor leukopaks were isolated and cryopreserved. To study the effect of Coenzyme Q10, cells were thawed, rested overnight and treated with or without phytohemagglutinin (PHA). PHA is a lectin protein found in plants which activates T cells by inducing mitosis. Various concentrations of Coenzyme Q10 (0, 12.5, 50, 200, 400 or 800 μM) were added to the cells at the same time. 24 hours to 72 hours post-treatment, frequency and viability of immune cell subpopulations was evaluated, as well as proliferative potential, cytokine secretion, and inhibitory receptor surface expression.
The frequency of different immune cell populations within PHA stimulated or unstimulated human PBMCs concurrently treated with Coenzyme Q10 (0, 12.5, 50, 200, 400 or 800 μM) was evaluated by flow cytometry. 24 hours post treatment, PBMCs were analyzed for the surface markers CD3/CD8, CD3/CD4, CD3/CD56, or CD19/CD14. Frequency of immune cell subtypes was quantified by percentage of cells gated for T cells (CD3/CD8/CD4), natural killer T cells (NKT), natural killer (NK) cells, B cells, and monocytes. Cells from 5 healthy donors were tested.

CTLA-4 = test: Inhibitory receptor surface expression on T cells within PBMCs; type: cell-based, human; settings: PHA-stimulated T cells, 24 hours, dose dependent
Protocol: (§1) Expression of the inhibitory receptor proteins PD-1 and CTLA-4 on the surface of T cells within PBMCs was also determined. The cells were treated with Coenzyme Q10 for 24 hours. Expression of immune checkpoint receptors was measured by staining cells with phenotypic markers for CD3/CD8, or CD3/CD4 in combination with antibodies against PD-1 or CTLA-4. Live cells were identified as 7 AAD negative lymphocytes followed by T cell phenotype characterization of total CD3+ T cells, cytotoxic T cells, or helper T cells. PD-1 or CTLA-4 cell surface expression was measured as mean fluorescence intensity on live T cells. Cells from three donors were tested. As shown in FIGS. 20A and 20B, Coenzyme Q10 decreased PD-1 and CTLA-4 expression on the surface of PHA-stimulated T cells in a dose dependent manner.

PD-1 = test: as above; type: cell-based, human; settings: PHA-stimulated T cells, 24 hours, dose dependent
Protocol: as §1

[1] = system: B16F10 skin melanoma cells; test: Cell viability (CellTiter-Fluor) of mouse syngeneic tumor cell line; type: cell-based; settings: B16F10, 72 hours, 37° C.
Protocol: (§2) The sensitivity of mouse syngeneic tumor cell lines to Coenzyme Q10 was evaluated in vitro. Six mouse syngeneic tumor cell lines from different tissue types were exposed to increasing concentrations of Coenzyme Q10 (0-25 mM) at 37° C. for 72 hours. Cell viability was measured using CellTiter-Fluor kit (Promega, Madison, Wis.). Graphs and IC50 values were calculated using GraphPad Prism using data for at least three independent experiments. Mouse syngeneic tumor cell lines evaluated were Lewis lung carcinoma (LL2), hepatoma (Hepa1-6) skin melanoma (B16F10), colon cancer (CT26), mammary gland adenocarcinoma (EMT6/P), and renal adenocarcinoma (Renca). As shown in FIGS. 24A-24F, Coenzyme Q10 reduced viability of all of the tumor cell lines in a dose dependent manner.

CT26 colon cancer cells = test: as above; type: cell-based; settings: CT26, 72 hours, 37° C.
Protocol: as §2

[2] = system: EMT6/P mammary gland adenocarcinoma cells; test: as above; type: cell-based; settings: 72 hours, 37° C.
Protocol: as §2

Hepa1-6 hepatoma cells = test: as above; type: cell-based; settings: Hepa1-6, 72 hours, 37° C.
Protocol: as §2

[3] = system: LL/2 Lewis lung carcinoma cells; test: as above; type: cell-based; settings: LL/2, 72 hours, 37° C.
Protocol: as §2

[4] = system: Renca renal adenocarcinoma cells; test: as above; type: cell-based; settings: 72 hours, 37° C.
Protocol: as §2

[5] = system: PD-L1 protein on the surface of mouse syngeneic tumor cell lines; test: PD-L1 protein on the surface of mouse syngeneic tumor cells; type: cell-based; settings: with or without INFγ, IC50 amount of Coenzyme Q10, 24 hours
Protocol: The effect of Coenzyme Q10 on the level of PD-L1 protein on the surface of the mouse syngeneic tumor cells was also evaluated. Mouse syngeneic tumor cell lines from different tissue types were cultured with or without interferon γ (INFγ) in the presence or absence of their corresponding IC50 amount of Coenzyme Q10 at 37° C. for 24 hours.

[6] = system: murine Pan02 pancreatic cancer cells; test: Pan02 pancreatic tumor growth in C57BL/6 mice; type: in vivo, mouse; settings: Day 21
Protocol: C57BL/6 mice were implanted with murine Pan02 pancreatic cancer cells and treated with different doses of Coenzyme Q10 to evaluate the effects of Coenzyme Q10 on tumor growth. C57B1/6 female mice were inoculated with 3×10^7 Pan02 cells. When tumors reached a mean volume of 100 mm^3, animals were randomized into four groups and treated with vehicle control or Coenzyme Q10 (25, 50 or 100 mg/kg) by intraperitoneal (i.p.) injection twice daily for 21 days. Tumor volume was measured twice per week.

[7] = system: tumor associated macrophages (TAMs) in murine Pan02 pancreatic tumors; test: F4/80 IHC pathological scoring of tumor associated macrophages in Pan02 tumors; type: in vivo, mouse
Protocol: Pancreatic tumor samples from mice treated with different doses of Coenzyme Q10 were analyzed for the presence of tumor associated macrophages (TAMs). TAMs are found in close proximity to or within tumors and support tumor growth. C57B1/6 female mice were inoculated with Pan02 cells. When tumors reached a mean volume of 100 mm^3, animals were randomized into four groups and treated with vehicle control or Coenzyme Q10 (25, 50 or 100 mg/kg) twice daily for 21 days. At the end of the study, tumors were removed and subjected to immunohistochemistry (IHC) analysis for TAMs using the F4/80 marker. All slides were subjected to a pathological scoring. […] As shown in FIGS. 28A and 28B, Coenzyme Q10 decreased TAMs in a dose dependent manner.

[8] = 25 mg/kg twice daily for 21 days
[9] = 50 mg/kg twice daily for 21 days
[10] = 100 mg/kg twice daily for 21 days

COC1=C(OC)C(=O)C(C/C=C(\C)CC/C=C(\C)CC/C=C(\C)CC/C=C(\C)CC/C=C(\C)CC/C=C(\C)CC/C=C(\C)CC/C=C(\C)CC/C=C(\C)CCC=C(C)C)=C(C)C1=O [Coenzyme Q10]
Frequency of cytotoxic T cells (human PBMCs (T cells)): increased | Frequency of helper T cells (human PBMCs (T cells)): increased | Frequency of total T cells (human PBMCs (T cells)): increased | CTLA-4 expression on the surface of T cells (mean fluorescence intensity) (CTLA-4): decreased | PD-1 expression on the surface of T cells (mean fluorescence intensity) (PD-1): decreased | IC50 [1]: 1360 µM | IC50 (CT26 colon cancer cells): 1910 µM | IC50 [2]: 2200 µM | IC50 (Hepa1-6 hepatoma cells): 912 µM | IC50 [3]: 237 µM | IC50 [4]: 3750 µM | Level of PD-L1 protein on the cell surface [5]: did not have any effect | Percentage of Tumor Growth Inhibition ([6]; 25 mg/kg i.p. twice daily, p=0.2583 to control): 7% | Percentage of Tumor Growth Inhibition ([6]; 50 mg/kg i.p. twice daily, p=0.1255 to control): 19% | Percentage of Tumor Growth Inhibition ([6]; 100 mg/kg i.p. twice daily, p=0.0529 to control): 26% | Percentage of mice with TAM levels Higher than Control [7, 8]: 0% | Percentage of mice with TAM levels Lower than Control [7, 8]: 20% | Percentage of mice with TAM levels Similar to Control [7, 8]: 80% | Percentage of mice with TAM levels Higher than Control [7, 9]: 0% | Percentage of mice with TAM levels Lower than Control [7, 9]: 85.8% | Percentage of mice with TAM levels Similar to Control [7, 9]: 14.3% | Percentage of mice with TAM levels Higher than Control [7, 10]: 0% | Percentage of mice with TAM levels Lower than Control [7, 10]: 44.4% | Percentage of mice with TAM levels Similar to Control [7, 10]: 55.6% | Tumor associated macrophages (TAMs) in tumors ([7]; 25, 50 or 100 mg/kg twice daily for 21 days): decreased
